Experimental data taken from US20230167088A1, “1-PYRAZINYLPYRAZOLYL-3-OXYALKYL ACIDS AND THEIR DERIVATIVES, AND THEIR USE FOR CONTROL OF UNDESIRED PLANT GROWTH” (BAYER AKTIENGESELLSCHAFT, priority 2020, published 2023).

Legend:
[1] = tested on: VERPE; assay: Herbicidal pre-emergence action 2a (greenhouse pots, visual scoring); format: in vivo, Veronica persica; details: dosage 320 g/ha, visual scoring after about 3 weeks vs untreated controls
Procedure, shortened: (§1)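 Percent effect (0% like control, 100% plants died) was scored by eye roughly 3 weeks post-application. Formulated compound went onto the soil covering freshly sown seeds in water at 600 l/ha with 0.5% additive; dose 320 g/ha and/or 80 g/ha.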

[2] = tested on: POAAN; assay: Herbicidal pre-emergence action 2b (doubly sown, 1280 g/ha); format: in vivo, Poa annua; details: doubly sown pots, dosage 1280 g/ha, visual scoring after about 3 weeks
Procedure, shortened: (§2)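 Compounds were sprayed pre-emergence as wettable powders or emulsion concentrates onto soil covering freshly sown weed seeds, two species per pot. Percent activity was judged by eye roughly 3 weeks later versus untreated plants.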

[3] = tested on: ALOMY; assay: Herbicidal pre-emergence action 2a (greenhouse pots, visual scoring); format: in vivo, Alopecurus myosuroides; details: dosage 320 g/ha, visual scoring after about 3 weeks
Procedure, shortened: as §1

[4] = tested on: POLCO; assay: Herbicidal post-emergence action 1a (greenhouse pots, visual rating); format: in vivo, Polygonum convolvulus; details: visual rating about 3 weeks after treatment
Procedure, shortened: (§3)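 Visual scoring versus untreated plants (100% = plants dead, 0% = as control) followed roughly 3 weeks in the greenhouse after treatment. Plants grown in sandy loam pots had been sprayed on green parts at the one-leaf stage, 2–3 weeks post-sowing, with aqueous WP/EC preparations containing 0.5% additive, 600 l/ha, at 320 and/or 80 g/ha.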

[5] = tested on: STEME; assay: Herbicidal pre-emergence action 2b (doubly sown, 1280 g/ha); format: in vivo, Stellaria media; details: doubly sown pots, dosage 1280 g/ha, visual scoring after about 3 weeks
Procedure, shortened: as §2

[6] = tested on: DIGSA; assay: Herbicidal pre-emergence action 2a (greenhouse pots, visual scoring); format: in vivo, Digitaria sanguinalis; details: dosage 320 g/ha, visual scoring after about 3 weeks
Procedure, shortened: as §1

[7] = tested on: MATIN; assay: Herbicidal post-emergence action 1a (greenhouse pots, visual rating); format: in vivo, Matricaria inodora; details: visual rating about 3 weeks after treatment
Procedure, shortened: as §3

[8] = tested on: AMARE; assay: Herbicidal pre-emergence action 2b (doubly sown, 1280 g/ha); format: in vivo, Amaranthus retroflexus; details: doubly sown pots, dosage 1280 g/ha, visual scoring after about 3 weeks
Procedure, shortened: as §2

[9] = tested on: STEME; assay: Herbicidal post-emergence action 1b (twin sowing, 1280 g/ha); format: in vivo, Stellaria media; details: dosage 1280 g/ha, visual rating about 3 weeks after treatment
Procedure, shortened: (§4)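 Greenhouse weed pairs (mono- with dicotyledonous) were treated 2–3 weeks after sowing, at one leaf, using an aqueous spray at 600 L/ha carrying 0.5% additive. Percent activity, judged by eye against untreated plants, was recorded roughly 3 weeks post-application.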

[10] = tested on: AMARE; assay: Herbicidal post-emergence action 1a (greenhouse pots, visual rating); format: in vivo, Amaranthus retroflexus; details: visual rating about 3 weeks after treatment
Procedure, shortened: as §3

[11] = tested on: MATIN; assay: Herbicidal pre-emergence action 2b (doubly sown, 1280 g/ha); format: in vivo, Matricaria inodora; details: doubly sown pots, dosage 1280 g/ha, visual scoring after about 3 weeks
Procedure, shortened: as §2

[12] = tested on: PHBPU; assay: Herbicidal post-emergence action 1a (greenhouse pots, visual rating); format: in vivo, Pharbitis purpurea; details: visual rating about 3 weeks after treatment
Procedure, shortened: as §3

[13] = tested on: POLCO; assay: Herbicidal pre-emergence action 2a (greenhouse pots, visual scoring); format: in vivo, Polygonum convolvulus; details: dosage 320 g/ha, visual scoring after about 3 weeks vs untreated controls
Procedure, shortened: as §1

[14] = tested on: AMARE; assay: as above; format: in vivo, Amaranthus retroflexus; details: dosage 320 g/ha, visual scoring after about 3 weeks vs untreated controls
Procedure, shortened: as §1

[15] = tested on: MATIN; assay: Herbicidal post-emergence action 1b (twin sowing, 1280 g/ha); format: in vivo, Matricaria inodora; details: dosage 1280 g/ha, visual rating about 3 weeks after treatment
Procedure, shortened: as §4

[16] = tested on: POAAN; assay: as above; format: in vivo, Poa annua; details: dosage 1280 g/ha, visual rating about 3 weeks after treatment
Procedure, shortened: as §4

[17] = tested on: LOLRI; assay: Herbicidal post-emergence action 1a (greenhouse pots, visual rating); format: in vivo, Lolium rigidum; details: Dosage 320 g/ha; rated visually about 3 weeks after treatment; 100% = plants have died, 0% = like control plants
Procedure, shortened: as §3

[18] = tested on: LOLRI; assay: Herbicidal pre-emergence action 2a (greenhouse pots, visual scoring); format: in vivo, Lolium rigidum; details: dosage 320 g/ha, visual scoring after about 3 weeks vs untreated controls
Procedure, shortened: as §1

[19] = tested on: VERPE; assay: Herbicidal post-emergence action 1a (greenhouse pots, visual rating); format: in vivo, Veronica persica; details: dosage 320 g/ha, visual rating about 3 weeks after treatment
Procedure, shortened: as §3

[20] = tested on: STEME; assay: as above; format: in vivo, Stellaria media; details: Dosage 320 g/ha; rated visually about 3 weeks after treatment; 100% = plants have died, 0% = like control plants
Procedure: [table] a) Seeds of monocotyledonous and dicotyledonous weeds and crop plants are placed in sandy loam in plastic or organic plant pots, covered with soil and cultivated in a greenhouse under controlled growth conditions. 2 to 3 weeks after sowing, the test plants are treated at the one-leaf stage. The compounds of the invention, formulated in the form of wettable powders (WP) or as emulsion concentrates (EC), are then sprayed onto the green parts of the plants as aqueous suspension or emulsion with addition of 0.5% additive at a water application rate of 600 1/ha (converted). After the test plants have been kept in the greenhouse under optimum growth conditions for about 3 weeks, the activity of the preparations is rated visually in comparison to untreated controls. For example, 100% activity=the plants have died, 0% activity=like control plants. Tables A1 to A15 below show the effects of selected compounds of the general formula (I) according to Tables 1 and 2 on various harmful plants and an application rate corresponding to 320 g/ha and/or 80 g/ha, which were obtained by the experimental procedure mentioned above.

[21] = tested on: ECHCG; assay: Herbicidal pre-emergence action 2b (doubly sown, 1280 g/ha); format: in vivo, Echinochloa crus-galli; details: doubly sown pots, dosage 1280 g/ha, visual scoring after about 3 weeks
Procedure, shortened: as §2

[22] = tested on: VIOTR; assay: Herbicidal post-emergence action 1a (greenhouse pots, visual rating); format: in vivo, Viola tricolor; details: dosage 320 g/ha, visual rating about 3 weeks after treatment
Procedure, shortened: as §3

[23] = tested on: ALOMY; assay: as above; format: in vivo, Alopecurus myosuroides; details: Dosage 320 g/ha; rated visually about 3 weeks after treatment; 100% = plants have died, 0% = like control plants
Procedure, shortened: as §3

[24] = tested on: STEME; assay: Herbicidal pre-emergence action 2a (greenhouse pots, visual scoring); format: in vivo, Stellaria media; details: dosage 320 g/ha, visual scoring after about 3 weeks vs untreated controls
From the text: [table] a) Seeds of monocotyledonous and dicotyledonous weed plants and crop plants are placed in plastic or organic plant pots and covered with soil. The compounds of the invention, formulated in the form of wettable powders (WP) or as emulsion concentrates (EC), are then applied onto the surface of the covering soil as aqueous suspension or emulsion with addition of 0.5% additive at a water application rate of 600 1/ha (converted). After the treatment, the pots are placed in a greenhouse and kept under good growth conditions for the trial plants. After about 3 weeks, the effect of the preparations is scored visually in comparison with untreated controls as percentages. For example, 100% activity=the plants have died, 0% activity=like control plants. Tables B1 to B15 below show the effects of selected compounds of the general formula (I) according to Tables 1 and 2 on various harmful plants and an application rate corresponding to 320 g/ha and/or 80 g/ha, which were obtained by the experimental procedure mentioned above.

[25] = tested on: MATIN; assay: as above; format: in vivo, Matricaria inodora; details: dosage 320 g/ha, visual scoring after about 3 weeks vs untreated controls
Procedure, shortened: as §1

`O=C(O)COc1nn(-c2cnccn2)c(-c2cccc(F)c2)c1Br` [Example I-04] was tested, and the “Pre-emergence action against VERPE in %” value [1] was 90%, the “Pre-emergence action at 1280 g/ha against POAAN in %” value [2] was 100% and the “Pre-emergence action against ALOMY in %” value [3] was 80%. For the same compound, the “Post-emergence action against POLCO in %” value ([4]; dosage 80 g/ha) was 80%, the “Post-emergence action against POLCO in %” value ([4]; dosage 320 g/ha) was 90% and the “Pre-emergence action at 1280 g/ha against STEME in %” value [5] was 100%. The “Pre-emergence action against DIGSA in %” value [6] was 90%, the “Post-emergence action against MATIN in %” value ([7]; dosage 80 g/ha) was 80% and the “Post-emergence action against MATIN in %” value ([7]; dosage 320 g/ha) was 90%. The “Pre-emergence action at 1280 g/ha against AMARE in %” value [8] was 100%, the “Post-emergence action at 1280 g/ha against STEME in %” value [9] was 100% and the “Post-emergence action against AMARE in %” value ([10]; dosage 80 g/ha) was 90%. The “Post-emergence action against AMARE in %” value ([10]; dosage 320 g/ha) was 90%, the “Pre-emergence action at 1280 g/ha against MATIN in %” value [11] was 100% and the “Post-emergence action against PHBPU in %” value ([12]; dosage 80 g/ha) was 80%. The “Post-emergence action against PHBPU in %” value ([12]; dosage 320 g/ha) was 80%, the “Pre-emergence action against POLCO in %” value [13] was 90% and the “Pre-emergence action against AMARE in %” value [14] was 100%. The “Post-emergence action at 1280 g/ha against MATIN in %” value [15] was 90%, the “Post-emergence action at 1280 g/ha against POAAN in %” value [16] was 90% and the “Post-emergence action against LOLRI in %” value [17] was 80%. For the same compound, the “Pre-emergence action against LOLRI in %” value [18] was 90%, the “Post-emergence action against VERPE in %” value [19] was 80% and the “Post-emergence action against STEME in %” value [20] was 80%. For the same compound, the “Pre-emergence action at 1280 g/ha against ECHCG in %” value [21] was 100%, the “Post-emergence action against VIOTR in %” value [22] was 80% and the “Post-emergence action against ALOMY in %” value [23] was 90%. The “Pre-emergence action against STEME in %” value [24] was 90% and the “Pre-emergence action against MATIN in %” value [25] was 90%.
